# From ChEMBL document CHEMBL1201862, “PubChem BioAssay data set” (2004)
# Activity calls are given as the source filed them.
# Experiments:
# Trypsin = Trypsin (Sus scrofa, UniProt P00761); experiment: porcine trypsin inhibitors, dose response, selectivity assay for Rce1 protease inhibitor project, biochemical, quenched peptide fluorescence, cherry-pick (AID 488789)
# CAAX prenyl protease 2 = target: T1, CAAX prenyl protease 2 (Homo sapiens, UniProt Q9Y256); experiment: human Rce1 protease inhibitors, dose response, biochemical, yeast membranes, quenched-peptide fluorescence, cherry-pick (AID 588849)
# T1 sequence (Q9Y256 whole entry): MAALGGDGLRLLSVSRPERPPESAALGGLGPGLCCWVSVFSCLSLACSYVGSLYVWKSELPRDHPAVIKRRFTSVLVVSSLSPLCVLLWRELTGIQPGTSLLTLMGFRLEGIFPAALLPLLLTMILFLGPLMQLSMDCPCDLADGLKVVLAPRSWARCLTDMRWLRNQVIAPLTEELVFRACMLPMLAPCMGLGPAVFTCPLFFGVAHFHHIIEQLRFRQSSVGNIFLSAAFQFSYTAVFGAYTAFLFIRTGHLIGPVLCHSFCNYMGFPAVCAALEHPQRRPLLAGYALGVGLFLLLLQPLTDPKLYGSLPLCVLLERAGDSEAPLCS
# BJ = experiment: cytotoxicity toward Ras-transformed BJeLR fibroblasts, dose response, cell-based, alamar blue fluorescence, cherrypicked samples (AID 2631); format: functional; details: Homo sapiens;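 note: confirmatory dose-response assay in RAS-dependent BJ fibroblasts engineered with TERT, LT and ST, with cytotoxicity read by fluorescence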
# INS1 = experiment: beta cell apoptosis inhibitors, cytokine rescue, dose response, luminescence, retest (AID 449756); format: functional, cell-based; details: Rattus norvegicus;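 note: cell death triggered by IL-1 beta plus TNF-alpha plus IFN-gamma mixture; protective hits raise ATP signal compared with cytokine alone wells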
# Mu-type opioid receptor = Mu-type opioid receptor (Homo sapiens, UniProt P35372); experiment: (§1) Counterscreen for agonists of heterodimerization of the mu 1 (OPRM1) and delta 1 (OPRD1) opioid receptors: Luminescence-based cell-based high throughput dose response assay to identify agonists of OPRM1 homodimerization.; format: functional
# [1] = target: T2, Short transient receptor potential channel 4 (Mus musculus, UniProt Q9QUQ5); experiment: mouse TRPC4 channel activators, dose response, cell-based, HEK293 TRPC4/mu-opioid, Fluo-4 calcium (AID 434937); format: functional
# T2 sequence (Q9QUQ5 whole entry): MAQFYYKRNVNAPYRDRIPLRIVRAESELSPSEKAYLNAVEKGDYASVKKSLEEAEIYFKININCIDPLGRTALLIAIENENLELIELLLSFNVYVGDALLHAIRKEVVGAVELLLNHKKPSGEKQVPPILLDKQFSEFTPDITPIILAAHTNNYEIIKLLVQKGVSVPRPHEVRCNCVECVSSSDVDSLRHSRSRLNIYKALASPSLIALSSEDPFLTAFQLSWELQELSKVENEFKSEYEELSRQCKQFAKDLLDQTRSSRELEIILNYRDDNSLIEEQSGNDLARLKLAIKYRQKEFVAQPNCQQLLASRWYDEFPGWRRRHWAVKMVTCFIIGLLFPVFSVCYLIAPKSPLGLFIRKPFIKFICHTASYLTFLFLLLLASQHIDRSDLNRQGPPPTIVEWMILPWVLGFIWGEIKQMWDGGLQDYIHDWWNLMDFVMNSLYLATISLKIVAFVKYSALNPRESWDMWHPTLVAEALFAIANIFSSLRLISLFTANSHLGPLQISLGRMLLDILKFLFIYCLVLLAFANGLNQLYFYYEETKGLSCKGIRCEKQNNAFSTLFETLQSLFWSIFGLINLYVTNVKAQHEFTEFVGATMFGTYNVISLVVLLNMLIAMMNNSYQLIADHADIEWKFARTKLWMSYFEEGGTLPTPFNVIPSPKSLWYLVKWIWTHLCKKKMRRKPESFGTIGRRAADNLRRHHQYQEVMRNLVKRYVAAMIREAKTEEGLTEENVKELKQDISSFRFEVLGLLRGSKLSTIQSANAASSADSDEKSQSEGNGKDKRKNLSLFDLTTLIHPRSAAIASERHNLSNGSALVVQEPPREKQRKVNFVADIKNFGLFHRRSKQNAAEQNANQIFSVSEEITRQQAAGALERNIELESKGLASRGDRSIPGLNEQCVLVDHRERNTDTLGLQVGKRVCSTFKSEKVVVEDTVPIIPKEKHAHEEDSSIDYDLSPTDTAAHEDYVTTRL
# [2] = target: Delta-type opioid receptor (Homo sapiens, UniProt P41143); experiment: as §1, with “of OPRD1” for “of OPRM1”, “homodimerization. [Related pubchem assays (depositor defined):AID504326, AID504355, AID504692, AID504904, AID504905]” for “homodimerization.”; format: functional
# [3] = target: 5-hydroxytryptamine receptor 5A (Homo sapiens, UniProt P47898); experiment: Counterscreen for agonists of OPRM1-OPRD1 heterodimerization: luminescence-based cell-based high throughput dose response assay to identify agonists of 5-hydroxytryptamine (serotonin) 5A receptor (HTR5A). [Related pubchem assays (depositor defined):AID504326, AID504355, AID504692, AID504904, AID504905]; format: functional
# Caspase-3 = target: T3, Caspase-3 (Homo sapiens, UniProt P42574); experiment: SAR Analysis of small molecule inhibitors of Sentrin-specific proteases (SENPs) using a Caspase-3 Selectivity assay. [Related pubchem assays (depositor defined):AID2540, AID2599, AID434973, AID489001]; format: functional
# T3 sequence (P42574 whole entry): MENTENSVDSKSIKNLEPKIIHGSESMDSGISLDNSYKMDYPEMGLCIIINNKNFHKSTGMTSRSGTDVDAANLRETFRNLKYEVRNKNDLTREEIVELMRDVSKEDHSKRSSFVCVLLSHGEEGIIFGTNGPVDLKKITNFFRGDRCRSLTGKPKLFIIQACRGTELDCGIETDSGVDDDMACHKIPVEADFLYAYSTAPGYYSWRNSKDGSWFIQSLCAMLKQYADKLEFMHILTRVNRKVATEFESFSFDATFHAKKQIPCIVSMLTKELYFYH
# [4] = target: T4, Sentrin-specific protease 8 (Homo sapiens, UniProt Q96LD8); experiment: SENP8 protease inhibitors, SAR follow-up, biochemical, luminescence (AID 504501); format: functional
# T4 sequence (Q96LD8 whole entry): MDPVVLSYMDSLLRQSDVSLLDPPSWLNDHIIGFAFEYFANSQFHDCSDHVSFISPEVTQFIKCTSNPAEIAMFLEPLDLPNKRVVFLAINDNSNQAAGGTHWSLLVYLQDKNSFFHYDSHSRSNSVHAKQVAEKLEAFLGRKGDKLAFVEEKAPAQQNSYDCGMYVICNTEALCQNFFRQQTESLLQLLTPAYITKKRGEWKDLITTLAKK
# [5] = target: T5, Sentrin-specific protease 6 (Homo sapiens, UniProt Q9GZR1); experiment: SAR Analysis of small molecule inhibitors of Sentrin-specific protease 6 (SENP6) using a Luminescent assay. [Related pubchem assays (depositor defined):AID2582, AID2599]; format: functional
# T5 sequence (Q9GZR1 whole entry): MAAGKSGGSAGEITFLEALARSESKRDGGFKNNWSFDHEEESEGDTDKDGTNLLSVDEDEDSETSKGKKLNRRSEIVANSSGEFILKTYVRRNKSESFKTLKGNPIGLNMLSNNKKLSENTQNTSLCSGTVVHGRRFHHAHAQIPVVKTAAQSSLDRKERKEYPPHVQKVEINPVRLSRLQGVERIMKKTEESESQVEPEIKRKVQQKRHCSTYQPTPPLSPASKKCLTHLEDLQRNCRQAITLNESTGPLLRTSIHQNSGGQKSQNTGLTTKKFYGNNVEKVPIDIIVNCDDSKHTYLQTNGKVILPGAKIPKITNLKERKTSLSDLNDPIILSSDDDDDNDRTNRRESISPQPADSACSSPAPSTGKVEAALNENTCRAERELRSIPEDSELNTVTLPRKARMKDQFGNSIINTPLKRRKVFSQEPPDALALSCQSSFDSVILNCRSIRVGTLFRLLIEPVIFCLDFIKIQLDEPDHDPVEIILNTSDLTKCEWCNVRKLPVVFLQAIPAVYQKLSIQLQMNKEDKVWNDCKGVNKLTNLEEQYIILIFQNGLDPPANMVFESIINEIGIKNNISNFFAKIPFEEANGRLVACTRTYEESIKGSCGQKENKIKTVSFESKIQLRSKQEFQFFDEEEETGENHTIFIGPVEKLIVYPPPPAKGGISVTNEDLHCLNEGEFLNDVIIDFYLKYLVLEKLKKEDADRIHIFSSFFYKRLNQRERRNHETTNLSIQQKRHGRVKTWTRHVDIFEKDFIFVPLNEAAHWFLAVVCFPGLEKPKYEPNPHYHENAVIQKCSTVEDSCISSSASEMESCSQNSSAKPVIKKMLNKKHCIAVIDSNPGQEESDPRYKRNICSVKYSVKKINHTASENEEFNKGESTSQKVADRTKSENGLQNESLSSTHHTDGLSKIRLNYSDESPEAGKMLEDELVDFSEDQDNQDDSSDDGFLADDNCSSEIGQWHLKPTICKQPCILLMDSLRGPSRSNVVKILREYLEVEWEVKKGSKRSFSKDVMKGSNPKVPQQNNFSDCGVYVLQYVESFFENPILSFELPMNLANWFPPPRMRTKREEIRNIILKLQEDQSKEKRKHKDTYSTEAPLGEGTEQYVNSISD
# [6] = target: T6, Sentrin-specific protease 7 (Homo sapiens, UniProt Q9BQF6); experiment: SENP7 protease inhibitors, SAR follow-up, biochemical, luminescence (AID 504497); format: functional
# T6 sequence (Q9BQF6 whole entry): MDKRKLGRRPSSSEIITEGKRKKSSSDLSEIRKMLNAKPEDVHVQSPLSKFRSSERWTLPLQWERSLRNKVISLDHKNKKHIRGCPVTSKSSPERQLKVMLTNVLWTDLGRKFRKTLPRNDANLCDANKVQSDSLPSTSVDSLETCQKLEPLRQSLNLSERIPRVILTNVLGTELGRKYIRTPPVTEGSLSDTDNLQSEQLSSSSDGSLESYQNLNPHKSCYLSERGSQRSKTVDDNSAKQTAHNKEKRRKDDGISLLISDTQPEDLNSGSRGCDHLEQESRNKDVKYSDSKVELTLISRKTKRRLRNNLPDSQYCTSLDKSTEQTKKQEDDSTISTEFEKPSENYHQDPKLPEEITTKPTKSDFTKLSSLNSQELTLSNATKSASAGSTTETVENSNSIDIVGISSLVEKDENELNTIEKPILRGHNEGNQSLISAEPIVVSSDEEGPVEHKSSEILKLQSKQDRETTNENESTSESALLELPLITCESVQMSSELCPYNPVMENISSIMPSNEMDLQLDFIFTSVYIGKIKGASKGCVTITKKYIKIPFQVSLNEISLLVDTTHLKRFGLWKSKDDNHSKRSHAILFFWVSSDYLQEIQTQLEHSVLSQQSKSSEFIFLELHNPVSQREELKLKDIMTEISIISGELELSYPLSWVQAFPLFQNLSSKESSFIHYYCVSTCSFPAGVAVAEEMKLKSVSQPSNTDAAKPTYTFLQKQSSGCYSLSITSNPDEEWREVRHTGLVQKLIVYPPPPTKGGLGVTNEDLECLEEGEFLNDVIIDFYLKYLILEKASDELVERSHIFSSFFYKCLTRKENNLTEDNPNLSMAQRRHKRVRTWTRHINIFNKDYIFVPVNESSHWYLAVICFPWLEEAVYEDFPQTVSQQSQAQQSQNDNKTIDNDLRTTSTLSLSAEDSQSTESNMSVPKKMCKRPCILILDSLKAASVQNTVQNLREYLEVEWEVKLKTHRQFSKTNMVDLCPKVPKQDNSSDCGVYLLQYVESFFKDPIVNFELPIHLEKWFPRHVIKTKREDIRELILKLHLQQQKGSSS
# Chain of Trypsin (P00761 whole entry): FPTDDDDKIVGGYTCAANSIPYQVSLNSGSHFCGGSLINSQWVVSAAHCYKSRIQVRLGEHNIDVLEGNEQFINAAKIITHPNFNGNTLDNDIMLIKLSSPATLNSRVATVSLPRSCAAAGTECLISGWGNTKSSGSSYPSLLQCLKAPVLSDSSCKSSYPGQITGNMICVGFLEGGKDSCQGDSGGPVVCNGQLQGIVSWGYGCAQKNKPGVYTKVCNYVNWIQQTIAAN
# Chain of Delta-type opioid receptor (P41143 whole entry): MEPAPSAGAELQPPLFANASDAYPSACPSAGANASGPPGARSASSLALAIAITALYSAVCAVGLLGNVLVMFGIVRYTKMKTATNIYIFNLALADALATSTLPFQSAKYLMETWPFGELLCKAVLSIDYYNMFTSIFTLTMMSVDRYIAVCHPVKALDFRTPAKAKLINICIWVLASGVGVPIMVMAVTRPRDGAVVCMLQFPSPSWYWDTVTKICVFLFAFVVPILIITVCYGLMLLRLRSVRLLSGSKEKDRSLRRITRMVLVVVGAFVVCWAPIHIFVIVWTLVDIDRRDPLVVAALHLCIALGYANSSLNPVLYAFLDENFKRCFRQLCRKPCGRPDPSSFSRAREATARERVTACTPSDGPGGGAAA
# Chain of Mu-type opioid receptor (P35372 whole entry): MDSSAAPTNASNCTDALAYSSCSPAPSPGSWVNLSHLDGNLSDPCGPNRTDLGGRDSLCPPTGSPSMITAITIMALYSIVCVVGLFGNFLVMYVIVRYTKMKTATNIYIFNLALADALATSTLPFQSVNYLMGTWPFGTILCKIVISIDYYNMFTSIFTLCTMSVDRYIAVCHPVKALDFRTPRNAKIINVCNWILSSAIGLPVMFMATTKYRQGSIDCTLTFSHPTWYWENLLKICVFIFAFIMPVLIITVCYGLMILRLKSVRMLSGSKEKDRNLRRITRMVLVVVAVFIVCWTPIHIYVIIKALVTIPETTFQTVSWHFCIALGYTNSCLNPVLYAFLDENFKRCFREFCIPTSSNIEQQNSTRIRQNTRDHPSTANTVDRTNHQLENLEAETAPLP
# Chain of 5-hydroxytryptamine receptor 5A (P47898 whole entry): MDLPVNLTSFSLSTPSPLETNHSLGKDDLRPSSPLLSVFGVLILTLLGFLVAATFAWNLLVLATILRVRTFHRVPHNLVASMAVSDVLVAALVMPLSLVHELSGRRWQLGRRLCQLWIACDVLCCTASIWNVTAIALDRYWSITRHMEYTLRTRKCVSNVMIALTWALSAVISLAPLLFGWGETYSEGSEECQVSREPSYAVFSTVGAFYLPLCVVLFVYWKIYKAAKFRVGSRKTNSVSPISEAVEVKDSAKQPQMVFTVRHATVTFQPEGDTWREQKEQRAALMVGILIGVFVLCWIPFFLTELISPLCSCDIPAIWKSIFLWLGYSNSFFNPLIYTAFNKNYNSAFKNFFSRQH
SMILES,AC50 (Trypsin),AC50 (CAAX prenyl protease 2),IC50 (Caspase-3),IC50 [4],IC50 [5],IC50 [6],other results
Cc1cc(C)n2cc(CSC3=NCCS3)nc2n1,8.5 µM (active),8.53 µM (active),–,–,–,–,–
OC(c1cc(-c2ccc(Cl)cc2)nc2ccccc12)C1CCCCN1 (stereo not drawn),–,–,–,–,–,–,EC50 (BJ): > 133 µM (inactive); AC50 (INS1): 12.2 µM (active)
CN(C)C(CN=C(S)Nc1cccc(Cl)c1)c1ccccc1 (stereo not drawn),–,–,–,–,–,–,EC50 (Mu-type opioid receptor): 4.64 µM (active); EC50 [1]: 0.596 µM (active); EC50 [2]: 11.5 µM (inactive); EC50 [3]: > 92.5 µM (inactive)
CSc1ccc(/C=C/c2noc(-c3ccccc3O)n2)cc1,–,–,1.1 µM (active),1.3 µM (active),1.3 µM (active),1.3 µM (active),–
Clc1ccccc1-c1nnc(/C=C/c2cccs2)o1,–,–,1.3 µM (active),2.06 µM (active),2.01 µM (active),1.96 µM (active),–
CN(C)c1ccc(/C=N/NC(=O)C(O)c2ccc(Br)cc2)cc1 (stereo not drawn),2.8 µM (active),2.17 µM (active),–,–,–,–,–
